Results taken from patent publication US10960002B2, “Volatile metabolite profiles for the diagnosis and treatment of Mucorales fungi” (The Brigham and Women's Hospital, Inc., priority 2016, dated 2021).

Test system: Rhizopus microsporus
Assay: Sequential GC-MS analysis of breath samples from a patient with proven Rhizopus microsporus infection during antifungal therapy
Type: in vivo, human
Conditions: one patient with proven Rhizopus microsporus infection; from day 0 (start of therapy) over the 28-day treatment course

## C[C@@H](c1nc(-c2ccc(C#N)cc2)cs1)[C@](O)(Cn1cncn1)c1cc(F)ccc1F [isavuconazole]
  breath levels of three sesquiterpene metabolites (1H-Indene, 2,3,3a,4-tetrahydro-3,3a,6-trimethyl-1-(1-methylethyl)-; cedrene; cedranoxide, 8,14-): gradual attenuation and disappearance
